From PMC10691770, “Inhibition of Parkinson’s disease–related LRRK2 by type I and type II kinase inhibitors: Activity and structures” (Science Advances, 2023)

Assays:
[1] = test system: LRRK2(WT) and LRRK2(G2019S); set-up: method as in PMID 34515301; details: cited from earlier work
[2] = LRRK2-IN-1 ref 18; HG-10-102-01 ref 19; cited from earlier work
LRRK2^RCKW = target: T1, LRRK2^RCKW (Homo sapiens, UniProt Q5S007); assay: MS-based kinase activity assay (Rab8A phosphorylation); type: biochemical; details: 50 nM LRRK2^RCKW, 5 μM Rab8A, 1 mM ATP, ESI-MS readout
T1 construct: His6-Z (TEV site) (N, cleaved yes); made in house; host or cells: Sf9 insect cells (baculovirus)
T1 sequence (Q5S007 1327-2527): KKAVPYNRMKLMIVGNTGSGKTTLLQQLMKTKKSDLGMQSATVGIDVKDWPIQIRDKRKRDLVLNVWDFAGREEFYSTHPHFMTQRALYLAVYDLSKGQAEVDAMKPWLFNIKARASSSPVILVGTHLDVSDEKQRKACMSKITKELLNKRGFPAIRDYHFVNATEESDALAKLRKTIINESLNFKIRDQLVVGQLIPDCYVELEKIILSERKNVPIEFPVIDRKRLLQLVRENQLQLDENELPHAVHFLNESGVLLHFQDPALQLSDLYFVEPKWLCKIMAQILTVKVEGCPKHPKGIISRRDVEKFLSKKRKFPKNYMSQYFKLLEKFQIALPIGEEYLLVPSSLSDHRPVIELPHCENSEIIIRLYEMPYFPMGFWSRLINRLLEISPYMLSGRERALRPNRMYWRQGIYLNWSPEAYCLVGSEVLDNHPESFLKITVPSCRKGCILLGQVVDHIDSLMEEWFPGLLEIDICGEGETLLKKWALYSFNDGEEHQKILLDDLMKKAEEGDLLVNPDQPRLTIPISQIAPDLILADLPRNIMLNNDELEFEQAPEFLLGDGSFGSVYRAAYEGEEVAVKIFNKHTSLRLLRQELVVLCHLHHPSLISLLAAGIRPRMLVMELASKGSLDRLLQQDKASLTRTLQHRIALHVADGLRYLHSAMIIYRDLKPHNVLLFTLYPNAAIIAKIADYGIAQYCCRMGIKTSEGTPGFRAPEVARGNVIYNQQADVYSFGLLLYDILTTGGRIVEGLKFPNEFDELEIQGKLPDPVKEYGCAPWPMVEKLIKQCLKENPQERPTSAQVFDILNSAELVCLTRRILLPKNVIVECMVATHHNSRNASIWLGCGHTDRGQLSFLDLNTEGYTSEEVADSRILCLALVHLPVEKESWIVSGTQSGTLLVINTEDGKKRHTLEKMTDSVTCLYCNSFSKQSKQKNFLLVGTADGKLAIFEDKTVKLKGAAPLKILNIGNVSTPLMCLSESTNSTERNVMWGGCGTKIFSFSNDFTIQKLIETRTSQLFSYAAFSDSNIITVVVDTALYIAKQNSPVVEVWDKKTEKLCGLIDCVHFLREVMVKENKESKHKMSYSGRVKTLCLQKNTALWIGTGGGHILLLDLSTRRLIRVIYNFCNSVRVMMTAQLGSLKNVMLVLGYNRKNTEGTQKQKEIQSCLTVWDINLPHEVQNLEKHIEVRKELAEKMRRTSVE
Source text: To compare the activity of the selected LRRK2 inhibitors, we developed a mass spectrometry (MS)–based kinase activity assay using an established endogenous substrate. We subjected the Rab8A GTPase domain (residues 6 to 176) to LRRK2^RCKW phosphorylation in the presence of varying concentrations of a given inhibitor and directly quantified the amount of phosphorylated Rab8A (pRab8A) by ESI-MS (fig. S1C).
To determine the IC50 values for a set of LRRK2 inhibitors, the phosphorylation of the LRRK2 substrate Rab8A was assessed by applying an MS-based activity assay. LRRK2^RCKW protein (50 nM) was mixed with 5 μM substrate and varying concentrations of the inhibitors in assay buffer [20 mM Hepes (pH 7.4), 150 mM NaCl, 0.5 mM TCEP, 20 μM GDP, 2.5 mM MgCl2, and 0.5% glycerol]. The reaction was started by adding 1 mM ATP and incubated at room temperature (RT). […] Data were acquired using the MassHunter LC/MS Data Acquisition software and analyzed using the BioConfirm vB.08.00 tool (both Agilent Technology) (https://www.agilent.com/en/product/software-informatics/mass-spectrometry-software, RRID: SCR_016657). The peak intensities of the unphosphorylated and phosphorylated Rab8A species were quantified and the relative kinase activity was calculated. […]

LRRK2^KW (G2019S) = assay: Differential scanning fluorimetry (DSF) thermal shift assay, G2019S mutant; type: binding; details: inhibitor 10 μM
Procedure: The assay was performed according to a previously established protocol ([37]). Briefly, a solution of 4 μM LRRK2^KW protein in assay buffer [20 mM Hepes (pH 7.4), 150 mM NaCl, 0.5 mM Tris (2-carboxyethyl) phosphine (TCEP), 20 μM GDP, 2.5 mM MgCl2, and 0.5% glycerol] was mixed 1:1000 with SYPRO Orange (Sigma-Aldrich). The inhibitors to be tested were added to a final concentration of 10 μM. Twenty microliters of each sample were placed in a 96-well plate and heated gradually from 25° to 95°C. Fluorescence was monitored using an MX3005P real-time PCR instrument (Stratagene) with excitation and emission filters set to 465 and 590 nm, respectively. Data were analyzed with the MxPro software.

**Q.** Which “IC50 for LRRK2(WT) lower than that for LRRK2(G2019S)” value ([1]; in vitro phosphorylation assay) does the source give for Cc1ccc(C(=O)Nc2ccc(CN3CCN(C)CC3)c(C(F)(F)F)c2)cc1C#Cc1cnc2[nH]ncc2c1 [GZD-824] here?
**A.** ~ 4 fold

**Q.** For CNc1nc(Nc2ccc(C(=O)N3CCOCC3)cc2OC)ncc1Cl [HG-10-102-01], which brain penetrance [2] is on record?
**A.** brain penetrant

**Q.** What does the source list for COc1cc(C(=O)N2CCC(N3CCN(C)CC3)CC2)ccc1Nc1ncc2c(n1)N(C)c1ccccc1C(=O)N2C [LRRK2-IN-1]?
**A.** IC50 (inhibition of Rab8A phosphorylation), in words (LRRK2^RCKW): high nanomolar range; brain penetrance [2]: low brain penetrance

**Q.** Which “inhibition of LRRK2(G2019S) better than LRRK2(WT)” value ([1]; purified full-length LRRK2, in vitro assay with a peptide kinase substrate) does the source give for CC1CN(c2cc(-c3n[nH]c4ccc(OC5(C)CC5)cc34)ncn2)CC(C)O1 (stereo not drawn) [MLi-2] here?
**A.** ~ 2 fold

**Q.** And the ΔTM (LRRK2^KW (G2019S))?
**A.** 18 K
